# Assays:
# human mGlu3 = target: T1, human mGlu3 (Homo sapiens, UniProt Q14832); assay: [3H]-compound A displacement binding, human mGlu3 HEK293 membranes; conditions: Glu3 HEK293, 25 nM [3H]-compound A
# T1 construct: expressed in transfected cells; host or cells: HEK293
# Experimental: (§1) For [^3H]-compound A (a NAM compound, selective for mGlu2/3 (˜20 fold selective for 2 over 3) vs other mGluRs) binding, membranes from human mGlu2 and mGlu3 HEK293 cells, and also rat cortical membranes, were used. After thawing, membranes were homogenized using an Ultra Turrax homogenizer and suspended in ice-cold binding buffer containing 50 mM Tris-HCl (pH 7.4), 10 mM MgCl2, 2 mM CaCl2. Displacement studies were done using 6 nM of radioligand, except for human mGlu3 membranes where 25 nM was used. Assay mixtures were incubated for 60 min at RT in a volume of 0.5 ml containing […] or 75 μg membrane protein of human mGlu2, human mGlu3 or rat cortex, respectively. Non-specific binding was estimated in the presence of […] compound B (a NAM with IC50˜10 nM against hmGlu2 and IC50˜200 nM against hmGlu3). Filtration was performed using Whatman GF/C filter sheets pre-soaked in 0.1% PEI and a Brandell harvester 96.
# (§2) Filters from filters sheets were punched into vials. After the addition of scintillation liquid, radioactivity on the filters was counted in a Liquid Scintillation Analyzer from Perkin Elmer.
# (§3) Radioligand competition binding data were calculated as percentage of total binding measured in the absence of test compound. Inhibition curves, plotting percentage of total binding versus the log concentration of the test compound, were generated using the Lexis software. Sigmoid inhibition curves were analyzed using non-linear regression analysis.
# mGluR2/3 = assay: microPET scan, baseline and after compound A pretreatment; format: in vivo; conditions: SD rats
# Experimental: Data were acquired in a 128×128×95 matrix with a pixel width of 0.475 mm and a slice thickness of 0.796 mm. During PET imaging, rats were kept under gas anesthesia (2.5% isoflurane in oxygen at a flow rate of 1 l/min), and their body temperature was maintained between 36.5 and 37° C. using a heating pad. PET data were analyzed using Pmod software version 3.2 (Pmod, Zurich Switzerland).
# Sprague-Dawley rats obtained from Harlan (the Netherlands), were housed in groups of four to six per cage until treatment. They were kept at a constant temperature of 21° C. and at a 12-h light/dark cycle, in which lights were switched on at 8:00 a.m. Animals had unrestricted access to food (Teklad Global 16% Protein Rodent Diet, Harlan, Madison, Wis., USA) and water. All animal experiments were performed in compliance with Belgium laws on animal experimentation and after approval by the local animal ethics committee.
# All pretreatment solutions were 1 mg/mL solutions in 20% β-cyclodextrine in saline with a pH ranging between 6 and 8, and sterile filtered over a Millex GV filter prior to use.
# For the baseline scan, 36-43 MBq of [^18F]-1 was injected in 3 SD rats weighing 229-251 g in the tail vein, and scanned simultaneously during a 90 min dynamic PET scan. For the pretreatment scan using compound A (a NAM compound, selective for mGlu2/3 (˜20 fold selective for 2 over 3) vs other mGluRs), the same animals were injected with 10 mg/kg compound A s.c. 60 minutes prior to injection of 38-37 MBq [^18F]-1 in the tail vein, and scanned simultaneously during a 90 minutes dynamic PET scan.
# For the baseline scan, 39-49 MBq of [^18F]-2 was injected in 3 SD rats weighing 301-310 g in a tail vein, and scanned simultaneously during a 90-min dynamic PET scan. For the pretreatment scan using compound A, the same animals were injected with 10 mg/kg compound A s.c. 60 min prior to injection of 46-50 MBq [^18F]-2 in the tail vein, and scanned simultaneously during a 90 min dynamic PET scan.
# human mGlu2 = target: T2, human mGlu2 (Homo sapiens, UniProt Q14416); assay: [3H]-compound A displacement binding, human mGlu2 HEK293 membranes; conditions: Glu2 HEK293, 6 nM [3H]-compound A
# T2 construct: expressed in transfected cells; host or cells: HEK293
# T2 sequence (Q14416 19-872): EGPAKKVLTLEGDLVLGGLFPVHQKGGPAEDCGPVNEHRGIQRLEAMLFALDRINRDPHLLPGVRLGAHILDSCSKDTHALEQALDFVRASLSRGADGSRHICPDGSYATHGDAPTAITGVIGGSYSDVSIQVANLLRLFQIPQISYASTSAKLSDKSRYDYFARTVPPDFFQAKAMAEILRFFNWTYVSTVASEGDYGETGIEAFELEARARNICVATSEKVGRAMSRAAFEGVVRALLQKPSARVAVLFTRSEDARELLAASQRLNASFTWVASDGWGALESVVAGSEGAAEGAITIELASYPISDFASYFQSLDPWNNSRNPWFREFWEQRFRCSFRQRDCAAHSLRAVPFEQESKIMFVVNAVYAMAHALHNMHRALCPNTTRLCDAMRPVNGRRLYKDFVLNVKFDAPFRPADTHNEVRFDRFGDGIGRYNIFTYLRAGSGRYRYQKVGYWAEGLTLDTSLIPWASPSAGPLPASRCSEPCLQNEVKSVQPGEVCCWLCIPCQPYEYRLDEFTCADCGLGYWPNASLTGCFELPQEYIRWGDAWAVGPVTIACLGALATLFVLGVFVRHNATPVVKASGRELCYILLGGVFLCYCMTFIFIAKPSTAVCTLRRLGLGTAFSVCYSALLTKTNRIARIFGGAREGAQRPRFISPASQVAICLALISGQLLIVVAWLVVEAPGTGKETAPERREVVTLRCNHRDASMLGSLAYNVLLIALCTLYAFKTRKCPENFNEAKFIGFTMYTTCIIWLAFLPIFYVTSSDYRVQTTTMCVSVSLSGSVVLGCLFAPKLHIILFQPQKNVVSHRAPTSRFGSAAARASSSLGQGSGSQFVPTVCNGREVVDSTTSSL
# Experimental: as §1, §2, §3
# Glu2-3 rat cortex = assay: [3H]-compound A displacement binding, rat cortical membranes; conditions: 6 nM [3H]-compound A
# Experimental: as §1, §2
# Radioligand competition binding data were calculated as percentage of total binding measured in the absence of test compound. […] Sigmoid inhibition curves were analyzed using non-linear regression analysis.
# T1 sequence (Q14832 23-879): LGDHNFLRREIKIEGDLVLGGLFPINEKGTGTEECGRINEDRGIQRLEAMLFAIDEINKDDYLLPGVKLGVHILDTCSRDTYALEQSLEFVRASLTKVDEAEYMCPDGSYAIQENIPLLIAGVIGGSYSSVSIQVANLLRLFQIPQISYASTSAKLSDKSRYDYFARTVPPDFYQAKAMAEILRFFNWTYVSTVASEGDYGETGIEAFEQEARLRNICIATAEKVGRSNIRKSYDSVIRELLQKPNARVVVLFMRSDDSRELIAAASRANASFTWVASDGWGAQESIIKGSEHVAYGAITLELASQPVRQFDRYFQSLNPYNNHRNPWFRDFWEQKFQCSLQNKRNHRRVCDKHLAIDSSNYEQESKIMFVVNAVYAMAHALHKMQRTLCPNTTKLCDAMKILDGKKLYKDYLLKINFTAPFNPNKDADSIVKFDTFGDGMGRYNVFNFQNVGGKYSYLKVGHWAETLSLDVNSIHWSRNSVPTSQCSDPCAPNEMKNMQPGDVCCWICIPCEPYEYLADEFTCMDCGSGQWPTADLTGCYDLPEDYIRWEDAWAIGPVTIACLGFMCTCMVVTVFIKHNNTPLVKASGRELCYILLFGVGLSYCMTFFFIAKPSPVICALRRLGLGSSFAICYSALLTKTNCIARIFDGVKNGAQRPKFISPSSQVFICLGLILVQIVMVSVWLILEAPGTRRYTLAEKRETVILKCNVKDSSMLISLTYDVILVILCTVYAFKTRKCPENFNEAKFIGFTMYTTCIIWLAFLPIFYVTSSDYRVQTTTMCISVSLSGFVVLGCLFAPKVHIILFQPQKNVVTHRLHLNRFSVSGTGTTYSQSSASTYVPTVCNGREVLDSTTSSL
structure (smiles),measurement,setting,value
C[C@H]1CN(c2ccc(C(F)(F)F)cc2)C(=O)c2c(C#Cc3cnc(N)cc3C[18F])cnn21 [Compound 1],Eff Curve,human mGlu3,104
same,IC50,human mGlu3,7.24 nM
same,Brain uptake after pretreatment with compound A,mGluR2/3; 10 mg/kg compound A s.c. 60 min before tracer,uptake was reduced after pretreatment with compound A
same,"Brain uptake in PET scan, in words",mGluR2/3; 90 min dynamic PET scan,high brain uptake
same,mGluR2/3 specificity of binding in vivo,"mGluR2/3; PET, baseline vs compound A pretreatment",good mGluR2/3 specificity
same,Eff Curve,human mGlu2,93
same,IC50,human mGlu2,2.75 nM
same,Eff Curve,Glu2-3 rat cortex,95
same,pIC50,Glu2-3 rat cortex,8.78
